Ki, concentration and Activity data for eight compounds are collected here from ChEMBL document CHEMBL1138060, “3-arylimino-2-indolones are potent and selective galanin GAL3 receptor antagonists” (J Med Chem, 2006).

Data set [1] has as its target T1, Galanin receptor type 3 (Homo sapiens, UniProt O60755).
T1 sequence (O60755 whole entry): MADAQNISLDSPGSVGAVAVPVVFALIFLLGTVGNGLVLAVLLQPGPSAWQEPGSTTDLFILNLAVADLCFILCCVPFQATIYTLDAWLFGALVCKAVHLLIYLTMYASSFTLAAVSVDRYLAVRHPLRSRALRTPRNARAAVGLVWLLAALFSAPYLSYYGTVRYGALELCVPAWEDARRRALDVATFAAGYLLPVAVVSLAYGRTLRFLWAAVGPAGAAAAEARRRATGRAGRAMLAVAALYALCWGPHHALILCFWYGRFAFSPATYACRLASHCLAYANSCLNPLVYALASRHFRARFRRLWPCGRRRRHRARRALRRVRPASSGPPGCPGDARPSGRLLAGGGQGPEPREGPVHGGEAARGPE
As to the kind of experiment: Displacement of [125I]galanin from human GAL3. For orientation: In a radioligand displacement assay an active substance lowers the binding of a labelled ligand.

A short description of data set [2]: Drug level in rat plasma at 10 mg/kg, pp after 2 hrs. In kind it is ADME, organism-based. The arrangement: dose 10 mg/kg.
Data set [3] in a line: Drug level in rat brain at 10 mg/kg, sc after 2 hrs. Details: dose 10 mg/kg, route subcutaneous. To be noted: read-out: Drug uptake. The format is ADME, organism-based.
A short description of data set [4]: Drug level in rat plasma at 10 mg/kg, sc after 2 hrs. The format is ADME, organism-based. Details: dose 10 mg/kg, route subcutaneous.
Data set [5] in a line: Drug level in rat plasma at 30 mg/kg, ip after 2 hrs. The format is ADME, organism-based. The arrangement: dose 30 mg/kg, route intraperitoneal.
Data set [6] is described as follows: Drug level in rat brain at 30 mg/kg, ip after 2 hrs. The format is ADME, organism-based. Details: dose 30 mg/kg, route intraperitoneal. The conditions noted are these: read-out: Drug uptake.
A short description of data set [7]: Drug level in rat plasma at 30 mg/kg, ip after 4 hrs. The arrangement: dose 30 mg/kg, route intraperitoneal. The format is ADME, organism-based.
Data set [8] can be described thus: Drug level in rat brain at 30 mg/kg, ip after 4 hrs. In kind it is ADME, organism-based. Details: dose 30 mg/kg, route intraperitoneal. The conditions noted are these: read-out: Drug uptake.
In data set [9] the target is T2, 5-hydroxytryptamine receptor 4 (Homo sapiens, UniProt Q13639). As to the kind of experiment: Binding affinity to human 5HT4.
In data set [10] the target is T2, 5-hydroxytryptamine receptor 4. In words: Agonist activity at human 5HT4 upto 10 uM. The format is functional.
The target is the same in data set [11]. As to the kind of experiment: Antagonist activity against human 5HT4 upto 10 uM. The format is functional.

Calls of active or inactive are those of the source. The calls are words filed in the database; no cut-off is given here.

T2 sequence (Q13639 whole entry): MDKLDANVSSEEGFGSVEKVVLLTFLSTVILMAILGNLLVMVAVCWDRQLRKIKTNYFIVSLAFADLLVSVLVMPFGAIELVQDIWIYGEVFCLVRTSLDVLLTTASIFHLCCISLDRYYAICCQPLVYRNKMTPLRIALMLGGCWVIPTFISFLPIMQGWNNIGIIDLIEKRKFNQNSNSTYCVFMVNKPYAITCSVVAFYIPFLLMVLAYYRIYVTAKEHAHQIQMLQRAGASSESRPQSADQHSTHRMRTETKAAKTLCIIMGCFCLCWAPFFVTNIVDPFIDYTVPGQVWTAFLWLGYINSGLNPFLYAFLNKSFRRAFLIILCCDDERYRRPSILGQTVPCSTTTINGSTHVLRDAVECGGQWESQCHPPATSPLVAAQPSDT

Take `O=C1Nc2ccccc2/C1=N\c1cccc(C(F)(F)F)c1`: the Ki in [1] came to 596 nM. This lies in the sub-micromolar range.

Take `C=CCN1C(=O)/C(=N/c2ccc(Cl)c(Cl)c2)c2ccccc21`: the inhibition constant Ki in data set [1] came out at 150 nM.

The compound `O=C1Nc2ccccc2/C1=N\c1cccc(Cl)c1Cl` displayed a Ki in [1] of 437 nM.

Consider `COc1ccc(/N=C2/C(=O)Nc3ccccc32)cc1`, for which, in [1], the Ki was over 10000 nM.

Compound `C#CCN1C(=O)/C(=N/c2cccc(C(F)(F)F)c2)c2ccccc21` registered a Ki in data set [1] of 89 nM.

Consider `O=C1Nc2ccccc2/C1=N\c1ccc(Cl)cc1`, for which the inhibition constant Ki in data set [1] was found to be 850 nM.

As for `O=C1/C(=N/c2cccc(C(F)(F)F)c2)c2ccccc2N1c1ccccc1`, the concentration at 2 h in data set [2] amounted to 90 ng/mL; in data set [3], 350 ng/g; in [4] it was 990 ng/mL; in data set [5], 780 ng/mL; in [6], 1060 ng/g. Also, the figures for the concentration at 4 h in [7] and in data set [8] were 1680 ng/mL and 1210 ng/g, respectively. Also, affinity in [9] was put at a Ki of 72 nM. Further, the result in [10] and in data set [11] was inactive.

In data set [1], `CCC(CC)N1C(=O)/C(=N/c2ccc(C(F)(F)F)cc2)c2ccccc21` showed an inhibition constant Ki of 52 nM.

As a reminder, the Ki is a measure of affinity in units of concentration, obtained from inhibition or displacement.
